Laboratory results as given in publication PMC7698306, “Exploring the Role of a Novel Peptide from Allomyrina dichotoma Larvae in Ameliorating Lipid Metabolism in Obesity” (International Journal of Molecular Sciences, 2020).
Several values for one entry are separate records, joined by “and”; a condition that tells them apart may be missing. Equal values may be shown once. No end group written: not given here.

Tests used:
[1] = test system: 3T3-L1 cells; assay: Lipid accumulation in differentiated 3T3-L1 cells by Oil Red O staining; assay type: cell-based; settings: synthesized peptides, untreated cells as control
Protocol: The 3T3-L1 cells were obtained from the Korean Cell Line Bank (Seoul, Korea). They were cultured and maintained in Dulbecco’s modified Eagle medium (DMEM) at 37 °C in a humidified atmosphere of 5% CO2. Additionally, 2-day post-confluent preadipocytes (designated day 0) were cultured in a 2-day differentiation medium composed of DMEM, 0.5 mM IBMX, 1 μM dexamethasone, and 5 μg/mL insulin to induce differentiation. The cells were then cultured in a DMEM containing 5 μg/mL insulin for another 2 days. The medium was replaced every 2 days until the cells had accumulated intracellular lipid droplets. Cells were seeded in 6-well plates, and adipocyte differentiation was induced for 8 days. On day 8, the cells were fixed with 10% buffered formalin and stained with Oil Red O solution for 60 min at room temperature. Images of lipid droplets in the 3T3-L1 adipocytes were captured using a Leica DMi1 microscope (Leica, Germany).

[2] = test system: HFD-fed mice; assay: Oral glucose tolerance test, insulin levels and insulin resistance indices in HFD-fed mice; assay type: in vivo, C57BL/6 mice; settings: for area under the OGTT curve (AUC): oral glucose 1 g/kg after 12 h fast, Figure 3B
From the text: Four-week-old male C57BL/6 mice were purchased from the Nara Bio Animal Center (NARA Biotech, Seoul, Korea) All experiments were approved by the Institutional Animal Care and Use Committee of Konkuk University (14 July 2019). All possible efforts were made to minimize the suffering and the animal count utilized in this study (KU19102). The mice were randomly divided into the following two groups after 1 week of acclimatization: n = 8 in the control group, fed a normal diet (Control, fat content of 10% kcal), and n = 30, fed a high-fat diet (HFD, fat content of 60% kcal). Mice were registered daily for food intake, and their body weights were assessed twice a week. […] HFD + EIA10, 100 mg/kg/d; and HFD + orlistat, 60 mg/kg /d for 5 weeks. As a positive control, Orlistat was used. After 12 weeks, the mice were subjected to fasting overnight and sacrificed (Figure 2A). Blood samples were harvested for further analysis. Sections of epididymal adipose and liver tissues were fixed in 10% formaldehyde for histological analyses and frozen in liquid nitrogen. An oral glucose tolerance test (OGTT) to determine the clearance of a standardized glucose load was performed after 5 weeks of oral administration. Plasma glucose was determined under postabsorptive conditions with blood collected at time ‒30 and 0 and then after oral administration of 1 g/kg of glucose at 30, 60, 90, and 120 min. Using a Blood Glucose Testing System (891 Hogye-Dong Dongan-gu, Anyang, Gyeonggi-do, Korea), blood samples were measured from the tail veins. A mouse ultrasensitive insulin ELISA package (ALPCO, Salem, NH, USA) was quantified for serum insulin. The hepatic insulin resistance index (hepatic IRI) was estimated by using the validated method of Matsuda and DeFronzo [43]. Insulin resistance was assessed using the homeostasis model assessment of insulin resistance (HOMA-IR). HOMA is a mathematically derived model of glucose–insulin feedback.

[3] = test system: HFD-fed mice; assay: Histological analysis of liver and epididymal adipose tissue (H&E, Oil Red O, IHC) of HFD-fed mice; assay type: in vivo, C57BL/6 mice
From the text: (§1) Four-week-old male C57BL/6 mice were purchased from the Nara Bio Animal Center (NARA Biotech, Seoul, Korea) All experiments were approved by the Institutional Animal Care and Use Committee of Konkuk University (14 July 2019). All possible efforts were made to minimize the suffering and the animal count utilized in this study (KU19102). The mice were randomly divided into the following two groups after 1 week of acclimatization: n = 8 in the control group, fed a normal diet (Control, fat content of 10% kcal), and n = 30, fed a high-fat diet (HFD, fat content of 60% kcal). Mice were registered daily for food intake, and their body weights were assessed twice a week. After 5 weeks, mice with a body weight 20% higher than that of the control group were picked and divided randomly into three groups (n = 8/group): HFD + EIA10, 100 mg/kg/d; and HFD + orlistat, 60 mg/kg /d for 5 weeks. As a positive control, Orlistat was used. After 12 weeks, the mice were subjected to fasting overnight and sacrificed (Figure 2A). Blood samples were harvested for further analysis. Sections of epididymal adipose and liver tissues were fixed in 10% formaldehyde for histological analyses and frozen in liquid nitrogen.
Liver and epididymal adipose tissues were dissected and embedded in paraffin for histological examination. Tissue blocks were cut into 4-μm thick sections that were stained with hematoxylin and eosin. Frozen liver sections were cut into 8-μm thick sections that were stained with Oil Red O. Adipocyte sizes were assessed using a microscope under 200× magnification to measure tissue size.

[4] = test system: adiponectin, leptin, SREBP-1c, PPARγ, C/EBP-α, FAS, ACC, FABP4; assay: mRNA (real-time PCR) and protein (Western blot, ELISA) levels of adipogenic/lipogenic factors in HFD-fed mice; assay type: in vivo, C57BL/6 mice
From the text: as §1
(§2) Through heart puncture, blood samples were collected and serum was isolated through centrifugation (3000 rpm for 20 min) and processed before further study at −80 °C. An automated analyzer (Abaxis VETSVAN VS2 Chemistry Analyzer, Union City, CA, USA) assessed serum levels of blood urea nitrogen, alanine aminotransferase (ALT), alkaline phosphatase, aspartate aminotransferase (AST), total protein, serum albumin, and electrolytes. Using a fast blood lipid analyzer (OSANG Healthcare Lipid Pro, Anyang, Korea), total cholesterol (TC), low-density lipoprotein cholesterol (LDL), high-density lipoprotein cholesterol (HDL), and TG were calculated. Adiponectin was analyzed by Western blotting, and leptin was quantified using a leptin enzyme-linked immunosorbent assay (ELISA) kit (MERCK, DHB, Germany).
Total cellular RNA was isolated from the epididymal adipose tissue of each group of mice using TRIzol. The first strand of complementary DNA (cDNA) was synthesized using Superscript II reverse transcriptase (Invitrogen). The conditions for RT-PCR were similar to those previously described. Quantitative real-time PCR was carried out using a Thermal Cycler Dice TP850 (Takarabio Inc., Shiga, Japan) according to the manufacturer’s protocol.
Frozen epididymal adipose tissues from mice were homogenized in liquid nitrogen. Tissue lyses were lysed in a radioimmunoprecipitation lysis buffer containing 1% protein inhibitor cocktail. They were transferred to a nitrocellulose blotting membrane and blocked with 5% skim milk, incubated overnight with primary antibodies purchased from Cell Signaling Technology, and then incubated with secondary antibodies for 2 h. Equal protein loading was ascertained using Ponceau S staining of the blotted membranes. With the help of an improved chemiluminescence detection reagent, the antibody-specific proteins were visualized and quantified using ImageJ tools.

[5] = test system: HFD-fed mice; assay: Body weight, energy intake, organ and adipose tissue weights, DXA body fat in high-fat diet (HFD)-fed mice; assay type: in vivo, C57BL/6 mice; settings: for Total fat weight: DXA; for Total fat weight / food intake between different drug groups (appetite): EIA10 100 mg/kg/d or orlistat 60 mg/kg/d oral; for food intake between different drug groups (appetite): HFD-fed mice; for Total energy intake: over 10 weeks
From the text: as §1
Dual-energy X-ray absorptiometry (DXA) measurements were used to compare the body fat. DXA measurements were performed after 4 weeks of administration using a total-body scanner (InAlyzer dual X-ray absorptiometry, Medikors, Gyeonggi, Korea). Data were obtained once with low energy and once with high energy.

[6] = test system: HFD-fed mice; assay: Serum biochemical parameters in HFD-fed mice; assay type: in vivo, C57BL/6 mice; settings: EIA10 100 mg/kg/d or orlistat 60 mg/kg/d oral for 5 weeks, mean ± SEM, n = 8; for ALT (alanine aminotransferase) / AST (aspartate aminotransferase) / HDL (high-density lipoprotein cholesterol) / LDL/VLDL / TC (total cholesterol) / TG (triglyceride): serum
From the text: as §1, §2

[7] = male C57BL/6 mice on HFD, mean ± SEM, n = 8
[8] = male C57BL/6 mice on HFD, EIA10 100 mg/kg/d or orlistat 60 mg/kg/d oral for 5 weeks, mean ± SEM, n = 8

NKLLSGVTIA [Peptide 14]
Lipid Accumulation (% of Control) [1]: 77.76 % of Control

KLPFQR [Peptide 1]
Lipid Accumulation (% of Control) [1]: 57.85 % of Control

EIAQDFKTDL [EIA10]
Lipid Accumulation (% of Control) [1]: 30.22 % of Control
insulin resistance (hepatic IRI, HOMA-IR) ([2]; five weeks of oral EIA10 in obese mice, Figure 3E,F): alleviated IR in the obese mice to some extent
area under the OGTT curve (AUC) ([2]; vs HFD group, p < 0.05): significantly lower
insulin secretion level after oral glucose ([2]; oral glucose 1 g/kg, vs HFD group, p < 0.05, Figure 3C,D): decreased
lipid droplets in the liver (Oil Red O staining of frozen sections) ([3]; EIA10 100 mg/kg/d oral 5 weeks, vs HFD group, Figure 2C,E): significantly reduced number of lipid droplets
size of the adipose cells (epididymal fat, H&E) ([3]; EIA10 100 mg/kg/d oral 5 weeks, vs HFD group, Figure 2D): lower than that of the HFD group
FAS in liver tissue by immunohistochemistry (IHC) ([3]; Figure 5C): inhibited
plasma leptin concentration ([4]; ELISA, HFD-fed mice, Figure 4B): reducing
mRNA and protein levels of SREBP-1c in the adipose tissue ([4]; HFD-fed mice treated with EIA10 vs HFD group, Figure 4C,D): lower
protein levels of adiponectin in mouse epididymal adipose tissue ([4]; Western blot, HFD-fed mice, Figure 4A): improved
mRNA and protein levels of PPARγ ([4]; epididymal adipose tissue, HFD group mice, Figure 4C,D): decreased
protein levels of PPARγ, C/EBP-α, SREBP-1c, and FABP4 ([4]; epididymal adipose tissue, Western blot, Figure 4D): significantly decreased
FAS and ACC gene expression ([4]; epididymal adipose tissue, Western blot, Figure 5A,B): inhibitory effect
expression of PPARγ, C/EBP-α, FAS, and SREBP-1c ([4]; epididymal adipose tissue, real-time PCR, Figure 4C): downregulated
Total fat weight [5, 7]: 12.71 ± 0.78 g
food intake between different drug groups (appetite) [5]: No significant difference
Epididymal adipose tissue weight [5, 8]: 2.06 ± 0.34 g
Final body weight [5, 8]: 37.38 ± 2.55 g
Initial body weight [5, 8]: 23.07 ± 0.33 g
Interscapular adipose tissue weight [5, 8]: 0.22 ± 0.06 g
Liver weight [5, 8]: 1.22 ± 0.25 g
Subcutaneous adipose tissue weight [5, 8]: 3.36 ± 0.58 g
Total energy intake [5, 8]: 1026.01 kcal and 1026.01 ± 2.60 kcal
Glucose [6]: 137 ± 11.47 mg/dL
ALT (alanine aminotransferase) [6]: 58.75 ± 13.16 U/L
AST (aspartate aminotransferase) [6]: 99.20 ± 20.00 U/L
HDL (high-density lipoprotein cholesterol) [6]: 74.49 ± 2.57 mg/dL
LDL/VLDL [6]: 32.97 ± 3.42 mg/dL
TC (total cholesterol) [6]: 107.46 ± 5.15 mg/dL
TG (triglyceride) [6]: 140.25 ± 5.23 mg/dL

STELLIR [Peptide 2]
Lipid Accumulation (% of Control) [1]: 59.04 % of Control

VTIAQGGVLFNIQA [Peptide 23]
Lipid Accumulation (% of Control) [1]: 74.36 % of Control

SGVTIAQGGVLP [Peptide 19]
Lipid Accumulation (% of Control) [1]: 68.00 % of Control

RIVDFHMLESR [Peptide 18]
Lipid Accumulation (% of Control) [1]: 41.94 % of Control

RFQSSAVMA [Peptide 12]
Lipid Accumulation (% of Control) [1]: 57.47 % of Control

NDEELNKLL [Peptide 7]
Lipid Accumulation (% of Control) [1]: 39.44 % of Control

AVQGLLK [Peptide 5]
Lipid Accumulation (% of Control) [1]: 48.40 % of Control

HLQLAIR [Peptide 4]
Lipid Accumulation (% of Control) [1]: 63.26 % of Control

QNIIPASTGAAK [Peptide 21]
Lipid Accumulation (% of Control) [1]: 44.40 % of Control

IAQGGVLP [Peptide 6]
Lipid Accumulation (% of Control) [1]: 38.01 % of Control

CCCCCCCCCCC[C@@H](C[C@@H]1OC(=O)[C@H]1CCCCCC)OC(=O)[C@H](CC(C)C)NC=O [Orlistat, reference compound]
area under the OGTT curve (AUC) ([2]; vs HFD group, p < 0.05): significantly lower
Total fat weight [5, 7]: 13.71 ± 1.09 g
food intake between different drug groups (appetite) [5]: No significant difference
Body weight gain [5, 8]: 12.56 ± 0.45 g
Epididymal adipose tissue weight [5, 8]: 1.90 ± 0.48 g
Final body weight [5, 8]: 36.11 ± 3.92 g
Initial body weight [5, 8]: 23.55 ± 0.07 g
Liver weight [5, 8]: 1.14 ± 0.12 g
Subcutaneous adipose tissue weight [5, 8]: 3.11 ± 0.53 g
Total energy intake [5, 8]: 1031.35 kcal and 1031.35 ± 26.32 kcal
Glucose [6]: 160.78 ± 13.62 mg/dL
ALT (alanine aminotransferase) [6]: 44.75 ± 8.38 U/L
AST (aspartate aminotransferase) [6]: 113.88 ± 16.17 U/L
HDL (high-density lipoprotein cholesterol) [6]: 72.05 ± 4.38 mg/dL
LDL/VLDL [6]: 41.21 ± 2.59 mg/dL
TC (total cholesterol) [6]: 113.26 ± 3.40 mg/dL
TG (triglyceride) [6]: 115.52 ± 4.66 mg/dL

EIAQDFK [Peptide 3]
Lipid Accumulation (% of Control) [1]: 52.20 % of Control

TLSDYNIQK [Peptide 13]
Lipid Accumulation (% of Control) [1]: 68.00 % of Control

ALNQAWAFLK [Peptide 16]
Lipid Accumulation (% of Control) [1]: 57.47 % of Control

HLQLAIRNDEELNK [Peptide 22]
Lipid Accumulation (% of Control) [1]: 83.11 % of Control

Ala-Glu-Arg-Val-Gly-Ala-Gly-Ala-Pro-Val-Try [Peptide 17]
Lipid Accumulation (% of Control) [1]: 35.06 % of Control
